From patent publication US20230167058A1, “GPX4 COMPOUNDS AND COMPOSITIONS AND METHODS OF TREATMENT USING SAME” (THE TRUSTEES OF COLUMBIA UNIVERSITY IN THE CITY OF NEW YORK, priority 2020, published 2023)
Changes are numbered by the printed parent chain. Entries after “also recorded” stand apart in the source; their conditions may differ.

What was measured:
[1] = molecular target: T1, GPX4 (Homo sapiens, UniProt P36969); experiment: GPX4-specific enzymatic activity assay (LC-MS substrate/product, NADPH-coupled); format: biochemical
T1 sequence (P36969 1-170 isoform P36969-2): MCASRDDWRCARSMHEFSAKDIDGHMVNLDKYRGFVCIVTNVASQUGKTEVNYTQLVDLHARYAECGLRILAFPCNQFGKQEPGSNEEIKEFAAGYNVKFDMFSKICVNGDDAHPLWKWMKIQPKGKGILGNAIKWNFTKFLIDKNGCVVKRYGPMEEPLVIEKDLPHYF
Text: (§1) These x-ray structures enabled further optimization of current inhibitors and the design of novel inhibitors targeting various binding sites on GPX4. Therefore, we applied a strategy of computer-facilitated design, based on MD simulation (Desmond) and Glide docking (Schrödinger Suite), and experimental high-throughput screening of a lead-optimized compound library of 10,000 compounds (FIGS. 6A-6E). All candidates were first evaluated by thermal denaturation assay and microscale thermophoresis (MST) to validate binding to GPX4 (Table 1). Surface plasmon resonance (SPR) and isothermal titration calorimetry (ITC) were then applied to precisely measure their binding kinetics and affinities, while ^1H-^15N heteronuclear single-quantum coherence (HSQC) NMR spectroscopy informed us of binding sites. We optimized two GPX4-specific activity assays to examine enzymatic inhibitory effects of hit compounds—LC-MS-based substrate/product monitoring and an NADPH-coupled assay. […] Some L880 analogues were also synthesized and tested (Table 2).

[2] = molecular target: T2, GPX4 (Homo sapiens, UniProt P36969, U73C); experiment: Microscale thermophoresis (MST) binding to GPX4; conditions: Table 1
T2 sequence (P36969 33-197 U73C): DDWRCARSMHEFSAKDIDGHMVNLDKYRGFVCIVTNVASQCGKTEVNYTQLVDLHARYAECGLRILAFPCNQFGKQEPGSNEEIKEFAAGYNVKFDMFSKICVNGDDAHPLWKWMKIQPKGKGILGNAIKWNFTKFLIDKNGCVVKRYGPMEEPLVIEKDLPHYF
Text: as §1, with “Therefore,” for “These x-ray structures enabled further optimization of current inhibitors and the design of novel inhibitors targeting various binding sites on GPX4. Therefore,”

[3] = Aqueous solubility; format: physicochemical
[4] = molecular target: T3, GPX4^allCys(−) A46C (Homo sapiens, UniProt P36969, C102S/C134A/C175A/C37A/C64S/C93A/U73C); experiment: Intact protein MALDI MS analysis, GPX4^allCys(−) A46C; format: binding; conditions: only cys46 present
T3 construct: His (cleaved yes); made in house; host or cells: E. coli BL21-Gold (DE3)
T3 sequence (P36969 33-197 C37A/C64S/U73C/C93A/C102S/C134A/C175A): T2 sequence (P36969 33-197 U73C) with C5A, C32S, C61A, C70S, C102A, C143A
Protocol: GPX4^U46C or GPX4^AllCys(−)-A46C protein was pre-incubated with DMSO control or the inhibitor to be tested prior to MALDI MS analysis: 50 μM GPX4 protein was incubated with 500 μM inhibitors in FPLC buffer (100 mM Tris pH 8.0, 300 mM NaCl, and 3 mM TCEP) with 5% DMSO at RT for 1 hour before transferring to 4° C. overnight.
1 μl of the ligand-free protein (pre-incubated with DMSO) or protein-inhibitor complex (pre-incubated with the inhibitor to be tested) was mixed with 9 μl of 10 mg/ml sinapinic acid in the matrix solution (70:30 water/acetonitrile, with 0.1% TFA). 1.0 μl of the final mix was deposited onto the target carrier and allowed to air dry. MALDI spectrum was recorded using Bruker ultrafleXtreme MALDI-TOF instrument. The range of m/z detection and suppression was adjusted to accommodate the molecular weight of target protein. 2000 Hz and 50% intensity was applied for the laser setting. For each sample, five cumulative spectra were collected and the sum was recorded for analysis. All MALDI spectra of protein-inhibitor complex were compared with ligand-free protein to determine the mass shift. Mass shifts were aligned with the mass of potential staying group of each inhibitor to conclude covalent binding.

[5] = system: cancer cells; conditions: cited from earlier work

MST [2]	Kd ([2]; read-out: MST Kd) [µM]	Compound	GPX4 enzymatic assay [1]	solubility in aqueous solution [3]	covalent modification of cys46 (mass shift) by MALDI MS [4]	potency to induce ferroptosis [5]
positive	100	COc1cccc2[nH]c(C(=O)n3ccnc3)cc12 [LOC1886]	suppression of its enzymatic activity; also recorded: positive			
		COC(=O)c1ccc([C@@H]2c3[nH]c4ccccc4c3C[C@@H](C(=O)OC)N2C(=O)CCl)cc1 [RSL3, (1S, 3R)-RSL3]		low	no mass shift	nanomolar potencies
